Data: patent publication EP0888303B1, “SYNTHETIC DERIVATIVES OF RAPAMYCIN AS MULTIMERIZING AGENTS FOR CHIMERIC PROTEINS WITH IMMUNOPHILIN-DERIVED DOMAINS” (ARIAD Pharmaceuticals, Inc, priority 1996, dated 1997)
Several values for one entry are separate records, joined by “and”; a condition that tells them apart may be missing. Identical values can stand only once. Like-named read-outs stand apart in the source and are kept apart here.

What was measured:
F36L mutant FKBP = F36L mutant FKBP (Homo sapiens, UniProt P62942, F37L); assay: Competitive Binding FP Assay
Method: (§1) Affinities of bumped synthetic ligands for FKBP were determined using a competitive assay based on fluorescence polarization (FP). […] The assay yields IC50 values that are related to the affinity of the competitive ligand for the protein.
(§2) All binding assay procedures were performed at room temperature. Serial dilutions of each protein were prepared in 50 mM potassium phosphate pH 7.8/150 mM NaCl/ 100µg/ml bovine gamma globulin ("FP buffer": prepared using only low-fluorescence reagents from Panvera), and 100 µl volumes transferred to wells of a Dynatech micro-fluor black 96-well fluorescence plate. 100 µl of 10 nM 4 in FP buffer plus 2% ethanol (prepared from an ethanol stock of the probe) was then added to each well with mixing. Duplicate control wells contained FP buffer instead of FKBP (for 0% probe binding) or 10 µM wild-type FKBP (for 100% binding).
(§3) The plates were stored covered in the dark for approximately 30 min to permit equilibration and then the fluorescence polarization of the sample in each well was read on a Jolley FPM-2 FP plate reader (Jolley Consulting and Research, Inc., Grayslake, IL) in accordance with the manufacturer's recommendations. Polarization (mP units) for each protein concentration was plotted (y axis) vs. final concentration of FKBP (x axis). Concentrations were determined by OD280 measurements. Arbitrary units were used for non-quantitated proteins.
(§4) Serial 10-fold dilutions of each synthetic ligand were prepared in 100% ethanol in glass vials and stored on ice. All other manipulations were performed at room temperature. […] 2.0 µl samples of the synthetic ligands were then transferred in duplicate to the wells with mixing. Finally, a probe solution was prepared containing 10 nM 4 in 0.1% ethanol/FP buffer, and 100 µl added to each well with mixing. Duplicate control wells contained ethanol instead of FKBP ligand (for 100% probe binding) or ethanol instead of FKBP ligand and FP buffer instead of FKBP (0% binding).
(§5) The plates were stored covered in the dark for approximately 30 min to permit equilibration and then the fluorescence polarization of the sample in each well read on a Jolley FPM-2 FP plate reader (Jolley Consulting and Research, Inc., Grayslake, IL) in accordance with the manufacturer's recommendations. The mean polarization (mP units) for each competitor concentration, in some cases converted to % total binding by reference to the control values, was plotted (y axis) vs. log molar final concentration of competitor (x axis). […] For incomplete curves the IC50 was determined by interpolation.

mutant (F36V) FKBP = assay: Competitive Binding FP Assay; design: species or system human
Method: as §1, §2, §3, §4, §5

wild-type human FKBP12 = wild-type human FKBP12 (Homo sapiens, UniProt P62942); assay: Competitive Binding FP Assay
Method: as §1, §2, §3
Serial 10-fold dilutions of each synthetic ligand were prepared in 100% ethanol in glass vials and stored on ice. All other manipulations were performed at room temperature. […] Finally, a probe solution was prepared containing 10 nM 4 in 0.1% ethanol/FP buffer, and 100 µl added to each well with mixing. Duplicate control wells contained ethanol instead of FKBP ligand (for 100% probe binding) or ethanol instead of FKBP ligand and FP buffer instead of FKBP (0% binding).
as §5

F36A mutant FKBP = assay: Competitive Binding FP Assay; design: species or system human; conditions: Synthetic Monomers table; normalized to value of FK506 run in the same experiment
Method: as §1, §2, §3, §4, §5

F36I mutant FKBP = assay: Competitive Binding FP Assay; design: species or system human; conditions: Synthetic Monomers table; normalized to value of FK506 run in the same experiment
Method: as §1, §2, §3, §4, §5

F36M mutant FKBP = assay: Competitive Binding FP Assay; design: species or system human; conditions: Synthetic Monomers table; normalized to value of FK506 run in the same experiment
Method: as §1, §2, §3, §4, §5

[1] = system: FKBP-containing fusion proteins (wt FKBP); assay: Transcription Assay, activation of reporter gene transcription (wt; stable); type: cell-based, human; conditions: at 1000 nM; each value an individual experiment
Excerpt: The ability of the multimerizing agents to multimerize chimeric proteins may be measured cell-based assays by measuring the occurrence of an event triggered by such multimerization. For instance, one may use cells containing and capable of expressing DNAs encoding chimeric proteins comprising one or more immunophilin-derived ligand binding domains and one or more effector domains capable, upon multimerization, of actuating a biological response. We prefer to use cells which further contain a reporter gene under the transcriptional control of a regulatory element (i.e., promoter) which is responsive to the multimerization of the chimeric proteins (at least one of which contains an FKBP domain). […] The cells are grown or maintained in culture. A multimerizing agent is added to the culture medium and after a suitable incubation period (to permit gene expression and secretion, e.g. several hours or overnight) the presence of the reporter gene product is measured. Positive results, i.e., multimerization, correlates with transcription of the reporter gene as observed by the appearance of the reporter gene product. The reporter gene product may be a conveniently detectable protein (e.g. by ELISA) or may catalyze the production of a conveniently detectable product (e.g. colored).
Dimerizers may also be assayed for their ability to activate transcription of a reporter gene linked to a regulatory sequence responsive to the dimerization of FKBP-containing fusion proteins containing one or more transcription regulatory domains (e.g. DNA binding domains and transcription activation domains). We have made use of such as system as follows. […] The reporter plasmid (G5IL2-SEAP) used in these assays contains a gene that encodes for secreted alkaline phosphatase (SEAP) under the control of the minimal IL2 promoter and 5XGAL4 binding sites placed upstream of the promoter. In all cases, a plasmid expressing growth hormone was used as an internal control to moniter transfection efficiency. Approximately, 16 hrs after transfection, the media was removed and the cells were washed twice with PBS. Cells were refed with 2.5 ml of DMEM containing 10% serum and two hours later, synthetic dimerizers were added directly to the medium at appropriate concentrations in 5ul of ethanol carrier solution. Approximetely, 24 hrs after the addition of the drugs, 100 ul of the media was removed and assayed for SEAP activity and another 100 ul of the media was used to assay for growth hormone activity (to normalize for transfection efficiency).

[2] = system: FAS-FKBP fusion (wt FKBP) in HT1080 cells; type: cell-based, human; conditions: for Fas killing (wt, stable): % @ 1000: human, ht1080 cells, 1 µM
Excerpt: In this case, one uses cells which constituively express a detectable product. The cells also contain and are capable of expressing DNAs encoding chimeric proteins comprising one or more immunophilin-derived ligand binding domains and one or more effector domains, such as the intracellular domain of FAS, capable, upon multimerization, of triggering cell death. […] The cells are maintainined or cultured in a culture medium permitting cell growth or continued viability. The cells or medium are assayed for the presence of the constitutive cellular product, and a base-line level of reporter is thus established. One may use cells engineered for constituive production of hGH or any other conveniently detectable product to serve as the reporter. The compound to be tested is addded to the medium, the cells are incubated, and the cells or medium is tested for the presence of reporter at one or more time points. Decrease in reporter production indicates cell death, an indirect measure of multimerization of the fusion proteins.
The ability of a dimerizer to activate the Fas signal transduction pathway and trigger cell death in cells engineered to express a FAS-FKBP fusion can be tested in cells appropriately transduced by retroviral vectors to express the desired fusion protein. […] The retroviral supernatant is used to transduce target cells. To screen compounds and constructs, we used the human fibrosarcoma line HT1080. Two to three days after transfection, cells are plated into G418 and the resistant population or clones are isolated by standard means. To monitor dimerizer-induced apoptosis, cells are plated into a 96-well plate at either 5000 or 10,000 cells/well in MEM medium containing 10% fetal bovine serum. The next day, medium removed and replaced with freshmedium containing the test compound at various dilutions, in triplicate. In some cases, Actinomycin D is included at 50 ng/ml. Untreated wells are always included. The next day, medium is removed and replaced with medium containing 10% Alamar Blue viability indicator, which changes absorbance properties as a function of reducing agent released into the medium by cell metabolism. Alternatively, cells are counted. Optical density at the appropriate wavelength is measured using a platereader spectroscope.

[3] = system: cells expressing a construct containing p75 followed by 2 mutant FKBPs followed by a Fas effector domain; assay: Cell death monitored by Alamar Blue or hGH levels in hGH-expressing clones; type: cell-based
Excerpt: As an alternative method for monitoring cell death, cells expressing a construct containing p75 followed by 2 mutant FKBPs followed by a Fas effector domain were transfected using an episomal vector, pCEP4 (Invitrogen Corp.) into which we had inserted DNA encoding hGH under control of a CMV promoter. The vector confers resistance to hygromycin. […] Monitoring Alamar Blue or hGH levels led to very similar EC50 curves for cell viability (measured as a % of control value) plotted against dimerizer concentration. In both cases the concentration of dimerizer corresponding to 50% of control was less than 1 nM.

[4] = Synthetic Monomers table, normalized to value of FK506 run in the same experiment, read-out: F36L IC50
[5] = Synthetic Monomers table, normalized to value of FK506 run in the same experiment, read-out: F36V IC50
[6] = Synthetic Monomers table, normalized to value of FK506 run in the same experiment, read-out: wild-type IC50
[7] = Synthetic Multimerizers table, monomer value in brackets, mean of duplicates, normalized to FK506 = […] (substituted phenyl/lower aliphatic series: to AP1903 values), read-out: FKBPF36V binding affinity IC50
[8] = read-out: FKBPwt binding affinity IC50

Sequence of F36L mutant FKBP (P62942 2-108 F37L): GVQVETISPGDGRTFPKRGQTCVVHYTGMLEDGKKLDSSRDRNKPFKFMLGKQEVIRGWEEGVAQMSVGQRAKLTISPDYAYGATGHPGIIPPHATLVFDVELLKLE
Sequence of wild-type human FKBP12 (P62942 2-108): as the sequence (P62942 2-108 F37L) above, with L36F counted along it

| Compound | IC50 (F36L mutant FKBP; [4]) | IC50 (mutant (F36V) FKBP; [5]) | IC50 (wild-type human FKBP12; [6]) | IC50 (F36A mutant FKBP) | IC50 (F36I mutant FKBP) | IC50 (F36M mutant FKBP) | IC50 (mutant (F36V) FKBP; [7]) | also measured |
| --- | --- | --- | --- | --- | --- | --- | --- | --- |
| COc1ccc(CCC(OC(=O)C2CCCCN2C(=O)C(c2ccccc2)C2CCCC2)c2cccc(OCC(=O)O)c2)cc1OC (mixture of isomers) [AP1778] | 32 nM | 22 nM | 16000 nM | – | – | – | – | – |
| COc1ccc(CCC(OC(=O)C2CCCCN2C(=O)C(c2ccccc2)C(C)C)c2cccc(OCC(=O)O)c2)cc1OC (mixture of isomers) [AP1781] | 33 nM | 26 nM | 38600 nM | – | – | – | – | – |
| COc1ccc(CCC(OC(=O)C2CCCCN2C(=O)C(Cc2ccccc2)c2ccccc2)c2cccc(OCC(=O)O)c2)cc1OC (mixture of isomers) [AP1831] | 217 nM | 153 nM | > 10000 nM | – | – | – | – | – |
| CCC(C)(C)C(=O)C(=O)N1CCCC[C@H]1C(=O)O[C@H](CCc1ccc(OC)c(OC)c1)c1cccc(OCC(=O)O)c1 [AP1497] | 47 nM | 44 nM | 86 nM | – | – | – | – | – |
| CC[C@@H](C(=O)N1CCCC[C@H]1C(=O)O[C@H](CCc1ccc(OC)c(OC)c1)c1cccc(OCC(=O)O)c1)c1ccccc1 [AP1769] | 238 nM | 133 nM | 220000 nM | 460 nM | 346 nM | 193 nM | – | – |
| COc1ccc(CC[C@@H](OC(=O)[C@@H]2CCCCN2C(=O)Cc2ccccc2)c2cccc(OCC(=O)O)c2)cc1OC [AP1780] | – | 1530 nM | 21600 nM | 8330 nM | 2060 nM | 2600 nM | – | IC50 (F36L mutant FKBP; read-out: F36L IC50): 3580 nM |
| COc1ccc(CC[C@@H](OC(=O)[C@@H]2CCCCN2C(=O)[C@H](C)c2ccccc2)c2cccc(OCC(=O)O)c2)cc1OC [AP1782] | 1400 nM | 590 nM | > 100000 nM | 1430 nM | 1050 nM | 927 nM | – | – |
| COc1ccc(CC[C@@H](OC(=O)[C@@H]2CCCCN2C(=O)[C@@H](C)c2ccccc2)c2cccc(OCC(=O)O)c2)cc1OC [AP1784] | 92 nM | 94 nM | 16000 nM | 171 nM | 117 nM | 414 nM | – | – |
| CCC(C(=O)N1CCCC[C@H]1C(=O)O[C@H](CCc1ccc(OC)c(OC)c1)c1cccc(OCC(=O)O)c1)c1ccc2c(c1)OCO2 (some centres unmarked) [AP1839] | – | 9 nM | 13500 nM | 32 nM | 26 nM | 19 nM | 5.4 nM | IC50 (F36L mutant FKBP; read-out: F36L IC50): 57 nM; IC50 (wild-type human FKBP12; [8]): 16700 nM |
| CC[C@H](C(=O)N1CCCC[C@H]1C(=O)O[C@H](CCc1ccc(OC)c(OC)c1)c1cccc(OCC(=O)O)c1)c1cc(OC)c(OC)c(OC)c1 [AP1867] | – | – | – | – | – | – | 1.8 nM | IC50 (F36L mutant FKBP; read-out: FKBPF36L binding affinity IC50): 6.2 nM; IC50 (wild-type human FKBP12; [8]): 1960 nM |
| CCC(C(=O)N1CCCC[C@H]1C(=O)O[C@H](CCc1ccc(OC)c(OC)c1)c1cccc(OCC(=O)NCCNC(=O)COc2cccc([C@@H](CCc3ccc(OC)c(OC)c3)OC(=O)[C@@H]3CCCCN3C(=O)C(CC)c3ccc4c(c3)OCO4)c2)c1)c1ccc2c(c1)OCO2 (some centres unmarked) [AP1885] | – | – | – | – | – | – | 59.4 nM | activation of transcription (wt; stable): % @ 1000 [1]: 0% @ 1000; Fas killing (wt, stable): % @ 1000 [2]: 0% @ 1000 |
| CC[C@H](C(=O)N1CCCC[C@H]1C(=O)O[C@H](CCc1ccc(OC)c(OC)c1)c1cccc(OCC(=O)NCCNC(=O)COc2cccc([C@@H](CCc3ccc(OC)c(OC)c3)OC(=O)[C@@H]3CCCCN3C(=O)[C@@H](CC)c3ccccc3)c2)c1)c1ccccc1 [AP1889] | – | – | – | – | – | – | 10000 nM | activation of transcription (wt; stable): % @ 1000 [1]: 0% (2×) and 1%; Fas killing (wt, stable): % @ 1000 [2]: 0% @ 1000 |
| CCC(CC)C(=O)N1CCCC[C@H]1C(=O)O[C@H](CCc1ccc(OC)c(OC)c1)c1cccc(OCC(=O)NCCNC(=O)COc2cccc([C@@H](CCc3ccc(OC)c(OC)c3)OC(=O)[C@@H]3CCCCN3C(=O)C(CC)CC)c2)c1 [AP1891] | – | – | – | – | – | – | – | activation of transcription (wt; stable): % @ 1000 [1]: 0% @ 1000; Fas killing (wt, stable): % @ 1000 [2]: 0% @ 1000 |
| CCC(CC)NC(=O)N1CCCC[C@H]1C(=O)O[C@H](CCc1ccc(OC)c(OC)c1)c1cccc(OCC(=O)NCCNC(=O)COc2cccc([C@@H](CCc3ccc(OC)c(OC)c3)OC(=O)[C@@H]3CCCCN3C(=O)NC(CC)CC)c2)c1 [AP1966] | – | – | – | – | – | – | 58 nM | – |
| COc1ccc(CC[C@@H](OC(=O)[C@@H]2CCCCN2C(=O)C(c2ccccc2)c2ccccc2)c2cccc(OCC(=O)O)c2)cc1OC [AP14245] | 684 nM | 273 nM | – | 127 nM | 562 nM | 173 nM | – | – |
| CC[C@H](C(=O)N1CCCC[C@H]1C(=O)O[C@H](CCN1CCOCC1)c1cccc(OCC(=O)O)c1)c1cc(OC)c(OC)c(OC)c1 [AP14246, (1R)-1-(3-(carboxymethoxy)phenyl)-3-(morpholino)-1-propyl (2S)-1-((2S)-(3,4,5-trimethoxyphenyl)butyryl)-2-piperdine carboxylate] | – | – | – | – | – | – | 16.5 nM | – |
| AP1903 | – | – | – | – | – | – | – | EC50 ([3]; Alamar Blue readout, read-out: concentration of dimerizer corresponding to 50% of control (cell viability, Alamar Blue)): < 1 nM; EC50 ([3]; hGH readout, read-out: concentration of dimerizer corresponding to 50% of control (hGH levels)): < 1 nM; EC50 ([2]; mean values, read-out: Fas killing (wt, stable) EC50): 40 to 50 nM |
